Patent publication US20040259096A1, “Receptor capture assay” (priority 2001, published 2004)

Legend:
Ah receptor [1] = test: Receptor capture assay employing ARNT-GST fusion protein, anti-GST plate, PCR and gel densitometry; type: biochemical, murine; details: B-naphthoflavone 10 μM; duplicate samples; 30 cycles PCR; DMSO control 363
Description: The receptor was activated in the presence of ARNT/GST binding partner and test sample. Sufficient ARNT/GST was added to displace the endogenous ARNT present in the Ah receptor preparation. In a tube, 98 μl Hepa1c1c7 (0.8 mg) extract was incubated with 1 μl GST-ARNT (50 ng) and 1 μl sample (e.g. BNF or vehicle alone) at 30° C. for 1 hour. Non-specific binding of the nucleic acid-tracer was reduced by preincubating the reaction mix with NaCl to 60 mM and 2 μg salmon sperm DNA for 15 min. at room temperature. Nucleic acid-tracer was added to 50 fmol and the reaction was incubated 20 min at room temperature. The complex was captured on a commercially available 96-well anti-GST plate (Perkin Elmer Life Sciences, Boston, Mass.). The anti-GST coated microtiter plate was washed once with Wallac Wash Buffer prior to addition of 50 μl receptor-DNA reaction. […]
Samples were analyzed by agarose gel electrophoresis with visualization of ethidium-bromide stained DNA bands under UV radiation Typically, 20 μl of each sample was analyzed in the 4% gels, yielding bright fluorescent bands from the positive controls. […] Negatives were scanned using an HPscanjet 2200c and DNA bands were quantified using ScionImage (Scion Corporation) software.
Duplicate samples were analyzed with the protocol described above with B-naphthoflavone (10 μM) or vehicle (DMSO) following 30 cycles PCR. […]

Ah receptor [2] = test: Detecting activated Ah receptor in nuclear extracts of treated Hepa 1c1c7 cells; type: cell-based, murine; details: Hepa 1c1c7 cells treated with 10 μM BNF for 1 hour
Description: Hepa 1c1c7 cells were grown until nearly confluent in Dulbecco's modified Eagle's medium and 8% fetal bovine serum. The cells were treated with 10 μM beta-naphthoflavone (BNF) in DMSO for 1 hour. The cells were then harvested after two washes with ice-cold PBS by centrifugation at 1000×g. The cells were then suspended in 5 packed cell pellet volumes of 10 mM Hepes, pH 7.5 and allowed to stand for 10 min.
The suspended cells were again collected by centrifugation and resuspended in two packed cell pellet volumes of 25 mM Hepes, pH 7.5, 3 mM MgCl2, 1 mM DTT and then lysed with 10 strokes of a Kontes all glass Dounce homogenizer (B type pestle). The resulting homogenate was checked microscopically to confirm cell lysis and then centrifuged for 10 min at 1000×g to pellet the nuclei.
The nuclear extract was prepared as follows. The nuclei were resuspended and incubated for 30 min in 25 mM Hepes, pH 7.5, 3 mM MgCl2, 1 mM DTT containing 0.4 M KCl. The suspension was occasionally vortexed during the 30 min incubation and centrifuged in a microfuge at high speed. Glycerol was added to the supernatant to a 10% concentration. The nuclear extract was diluted to lower the salt concentration prior to testing. The diluent was Hepa 1c1c7 cell extract that was previously boiled in order to inactivate protein factors and cooled to room temperature. […]

AhR = test: Receptor capture assay, real-time PCR, rodent cytosol as source of AhR; type: biochemical
Description: A set of calibrators consisting of 5000, 2500, 1250, […], 313, 156, and 78 parts per trillion (ppt or pg/ml) 2,3,7,8-tetrachlorodibenzo-p-dioxin (TCDD) was prepared in methanol. In addition to TCDD a set of calibrators for AhR agonist, beta-naphthoflavone (BNF) was prepared and analyzed in the assay. Separately, 25 ul of 1:50,000 dilution of 10 uM stock nucleic acid-tracer was added per 1 ml of rodent cytosol, which was the source of AhR, and was aliquoted into glass tubes. The standards were diluted 1:20 into 50-100 ul of rodent cytosol, and incubated for 1-2 hr at room temperature to 37° C. Following incubation, 40 to 100 ul of the reaction was transferred to each well of the antibody-coated Capture Strip and incubated on a shaking platform for 30 min to 1 hr at room temperature. The Capture Strips were washed 5 times with Wash Buffer B, and aspirated; optionally soaking wells for 30 sec-5 min with wash buffer during each cycle. Taqman® Universal PCR Master Mix, primers, and Taqman® probe (Applied Biosystems, Calif.) were added, and adhesive cover applied. PCR was performed and analyzed using an ABI PRISM® 7700, using default settings: 50° C., 2 min, 95° C. 10 min, and 40 cycles of [95° C., 15 sec, 60° C., 60 sec]. A threshold cycle (Ct) was determined for each reaction The Ct represents the PCR cycle at which an increase in reporter fluorescence above baseline signal can first be detected.

Row | Compound | average value of quantified DNA bands (Ah receptor [1]) | PCR-amplified DNA over nuclear extracts from DMSO-treated cells (Ah receptor [2]) | Ct Values (AhR; TCDD 78 ppt) | Ct Values (AhR; TCDD 156 ppt) | Ct Values (AhR; TCDD 313 ppt) | Ct Values (AhR; TCDD 1250 ppt) | Ct Values (AhR; TCDD 2500 ppt) | Ct Values (AhR; TCDD 5000 ppt)
1 | O=c1cc(-c2ccccc2)oc2ccc3ccccc3c12 [BNF, beta-naphthoflavone] | 3013 | significant and reproducible increase in PCR-amplified DNA | – | – | – | – | – | –
2 | Clc1cc2c(cc1Cl)Oc1cc(Cl)c(Cl)cc1O2 [TCDD, 2,3,7,8-tetrachlorodibenzo-p-dioxin] | – | – | 24.52 | 23.81 | 23.16 | 21.3 | 20.5 | 20.28
